pIC50: −log10 of the molar value.
Test system: human colon cancer cell SW620
Test: MTT assay, growth of SW620 cells, compounds combined with CPT-11
Format: cell-based
Settings: Homo sapiens, SW-620, 120 h; combined with CPT-11 (205 nM medium), 5 days, MTT
Description: Inhibitory effects of N,N-dimethyl-3-(4-(1-(tetrahydro-2H-pyran-4-yl)-[1,2,4]triazolo[4,3-a]quinoxalin-8-yl)phenoxy)propan-1-amine and its Analogues Combined with CPT-11 on the Growth of Human Colon Cancer Cell SW620 were Determined by MTT Assay
SW620 cells were digested by trypsinase, centrifuged at 800 rpm for 5 minutes, the supernatant was discarded, resuspended with fresh medium (RPMI 1640 medium+10% FBS) and counted. The cells were seeded into 96-well cell culture plate with appropriate cell density and incubated overnight in a 37° C. 5% CO2 incubator. The stock solutions of the tested compound and the reference compound AZD0156 were serially diluted to 8 concentrations by DMSO at the ratios of 1:3 and 1:10, respectively, the first concentration was 10 μM or 1 μM, and the last concentration was negative control of DMSO (0 μM, the final concentration of DMSO was 1%). 5 μL of each concentration was added to 120 μL of medium (25 times diluted) and mixed by shaking. The overnight cells were taken and the culture medium was removed, 195 μL of fresh medium containing 205 nM CPT-11 was added to each well, and 5 μL of diluted medium containing the corresponding concentration of the tested sample was added respectively, and the culture plate was then placed in the 5% CO2 cell culture incubator at 37° C. for 5 days. After removing the original solution, 100 pt of fresh serum-free DMEM medium containing MTT (0.5 mg/mL) was added to each well, the culture was continued. After 4 hours, the original solution was removed, 100 μL of DMSO was added into each well, the 96-well plates were shaken away from light for 10 minutes and placed in a multi-function reader to read the absorbance at the wavelength of 552/630/690 nm. GraphPad Prism 6.0 was used to analyze the data. The inhibitory activity of compounds on cell proliferation was plotted based on cell viability and compound concentration. The IC50 value was fitted by a sigmoidal dose response curve equation Y=100/(1+10^(Log C−Log IC50)), where C was the concentration of compound.
Table 3 summarizes the inhibitory effects of compounds combined with CPT-11 on the growth of human colon cancer cell SW620 (IC50).

| SMILES | pIC50 |
| --- | --- |
| C[C@@H]1CN(c2nnc3cnc4ccc(-c5ccc(N6CCC(N(C)C)CC6)c(F)c5)cc4n23)C[C@H](C)O1 [Example 104, 1-(4-(1-((2S,6R)-2,6-dimethylmorpholino)-[1,2,4]triazolo[4,3-a]quinoxalin-8-yl)-2-fluorophenyl)-N,N-dimethylpiperidin-4-amine] | 7.55 |
| C[C@@H]1CN(c2nnc3cnc4ccc(-c5ccc(N6CCC(N(C)C)CC6)cc5)cc4n23)C[C@H](C)O1 [Example 103, 1-(4-(1-((2S,6R)-2,6-dimethylmorpholino)-[1,2,4]triazolo[4,3-a]quinoxalin-8-yl)phenyl)-N,N-dimethylpiperidin-4-amine] | 6.75 |
| C[C@@H]1CN(c2nnc3cnc4ccc(-c5ccc(OCCCN(C)C)nc5)cc4n23)C[C@H](C)N1C [Example 26, N,N-dimethyl-3-((5-(1-((3S,5R)-3,4,5-trimethylpiperazin-1-yl)-[1,2,4]triazolo[4,3-a]quinoxalin-8-yl)pyridin-2-yl)oxy)propan-1-amine] | 7.24 |
| CCNC1CCN(c2ccc(-c3ccc4ncc5nnc(N6C[C@@H](C)N(C)[C@@H](C)C6)n5c4c3)cc2F)CC1 [Example 96, N-ethyl-1-(2-fluoro-4-(1-((3S,5R)-3,4,5-trimethylpiperazin-1-yl)-[1,2,4]triazolo[4,3-a]quinoxalin-8-yl)phenyl)piperidin-4-amine] | 7.82 |
| C[C@@H]1CN(c2nnc3cnc4ccc(-c5ccc(OCCCN(C)C)c(C(F)(F)F)c5)cc4n23)C[C@H](C)O1 [Example 102, N,N-dimethyl-3-(2-(trifluoromethyl)-4-(1-((2S,6R)-2,6-dimethylmorpholino)-[1,2,4]triazolo[4,3-a]quinoxalin-8-yl)phenoxy)propan-1-amine] | 7.68 |
| CNC1CCN(c2ccc(-c3ccc4ncc5nnc(N6C[C@@H](C)N(C)[C@@H](C)C6)n5c4c3)cc2F)CC1 [Example 94, N-methyl-1-(2-fluoro-4-(1-((3S,5R)-3,4,5-trimethylpiperazin-1-yl)-[1,2,4]triazolo[4,3-a]quinoxalin-8-yl)phenyl)piperidin-4-amine] | 7.89 |

Now from value to compound:

| pIC50 | SMILES |
| --- | --- |
| 7.66 | CN(C)C1CCN(c2ccc(-c3ccc4ncc5nnc(N6CCCCC6)n5c4c3)cc2F)CC1 [Example 112, 1-(2-fluoro-4-(1-(piperidin-1-yl)-[1,2,4]triazolo[4,3-a]quinoxalin-8-yl)phenyl)-N,N-dimethylpiperidin-4-amine] |
| 7.37 | CCNC1CCN(c2ccc(-c3ccc4ncc5nnc(N6C[C@@H](C)N(C)[C@@H](C)C6)n5c4n3)cc2F)CC1 [Example 119, N-ethyl-1-(2-fluoro-4-(9-((3S,5R)-3,4,5-trimethylpiperazin-1-yl)pyrido[3,2-e][1,2,4]triazolo[4,3-a]pyrazin-2-yl)phenyl)piperidin-4-amine] |
| 7.79 | CN(C)CCCOc1ccc(-c2ccc3ncc4nnc(N5CCCCC5)n4c3c2)cc1C(F)(F)F [Example 111, N,N-dimethyl-3-(4-(1-(piperidin-1-yl)-[1,2,4]triazolo[4,3-a]quinoxalin-8-yl)-2-(trifluoromethyl)phenoxy)propan-1-amine] |
| 7.32 | CNC1CCN(c2ccc(-c3ccc4ncc5nnc(N6C[C@@H](C)N(C)[C@@H](C)C6)n5c4n3)cc2F)CC1 [Example 117, 1-(2-fluoro-4-(9-((3S,5R)-3,4,5-trimethylpiperazin-1-yl)pyrido[3,2-e][1,2,4]triazolo[4,3-a]pyrazin-2-yl)phenyl)-N-methylpiperidin-4-amine] |
| 6.67 | CN(C)CCCOc1ccc(-c2ccc3ncc4nnc(C5CCOCC5)n4c3n2)cc1Cl [Example 140, 3-(2-chloro-4-(9-(tetrahydro-2H-pyran-4-yl)pyrido[3,2-e][1,2,4]triazolo[4,3-a]pyrazin-2-yl)phenoxy)-N,N-dimethylpropan-1-amine] |
| 6.58 | CN(C)CCCOc1ccc(-c2ccc3ncc4nnc(C5CCOCC5)n4c3n2)cc1F [Example 139, 3-(2-fluoro-4-(9-(tetrahydro-2H-pyran-4-yl)pyrido[3,2-e][1,2,4]triazolo[4,3-a]pyrazin-2-yl)phenoxy)-N,N-dimethylpropan-1-amine] |

— patent US10874670B2, “Substituted fused heteroaromatic compounds as kinase inhibitors and the use thereof” (IMPACT THERAPEUTICS, INC., priority 2017, dated 2020)
